Here are results for 1 substance from US20250026880A1, “POLY(DIALLYLDIMETHYLAMMONIUM) FLUORIDE - A NEW ANTI-CARIES AND REMINERALIZING AGENT” (The University of Hong Kong, priority 2023, published 2025).

The experiment can be described thus: Remineralizing properties on EDTA-etched dentin blocks soaked in simulated body fluid (SEM/EDX). Particulars: 15 μL applied on dentin etched by 10% EDTA; soaked in simulated body fluid for 7 d; PDDAF 280,000 ppm, SDF 38%. As for the experimental part: The volume of both solutions applied on dentin surface is 15 μL.
The remineralizing properties of 280,000 ppm cationic polymer fluoride solution was examined. […] Dentin blocks with the dimensions of 4 mm×4 mm×2 mm were prepared (FIGS. 8C-8D, 9C-9D).

In the case of silver diamine fluoride [38% SDF], the “minerals formed on re-mineralized dentin surface (EDX)” value is “formation of mineral calcium phosphate and silver chloride”.
